The values below come from patent publication US20100016207A1, “Methods and Compositions for Raising Levels and Release of Gamma Aminobutyric Acid” (priority 2005, published 2010).

The subject of series [1] is brain (striatal) GABA, glutamine and glutamate levels. Kind of series: Striatal tissue neurotransmitter contents after oral glutamine (HPLC-EC). To be noted: Gln by gavage, striata 2.5 hrs after dosing, vs saline (FIG. 3). Format: in vivo, Sprague Dawley rats. The method, then:
(§1) Male adult Sprague Dawley (SD) rats (˜250 g) (n=9) were reared under and exposed to a 12 hr light/dark cycle, and provided with food (16% protein) and water ad libitum. Gln (0.5 grams per kilogram (g/Kg) or 1.0 g/Kg, in saline) or saline were administered by gavage. Rats were sacrificed by decapitation 2.5 hours (h) later.
To measure GABA contents, brains were quickly dissected on a chilled dissection board. Striata were homogenized with HClO4 and neutralized with 0.1 M Borate buffer (1:10). Data were normalized by the wet weights of the samples.
(§2) GABA was measured by HPLC, using an ODS column and OPA-sulfite derivation with electrochemical detection. OPA-sulfite HPLC-EC derivation was used to measure GABA levels in both brain tissue and microdialysis samples. The samples were derivatized at 4° C. to allow usage of an auto-sampler (Alltech 580). The detector used was an ESA Coulochem® II 5100A with an ESA microdialysis cell.
(§3) Data are presented as mean+/−S.E.M. ANOVA or t-test was used to determine differences between groups (significance level, p<0.05).

Series [2] in a line: Plasma glutamate and glutamine levels after oral glutamine. In kind it is in vivo, Sprague Dawley rats. Conditions: Gln by gavage, vs saline (FIG. 4). How it is done: as §1, §3
Series [3] concerns GABA release in rat striatum. Put plainly: Microdialysis of spontaneous and NMDA-evoked GABA release in rat striatum. Format: in vivo, rats. Conditions: striatal microdialysis, mean±S.E.M. The method, then: as §2, §3
Microdialysis was carried out in freely moving rats. Rats were anesthetized, and CMA/11 guide cannulas were permanently implanted into right striatum (AP=+0.5, ML=−3.0 from Bregma, DV=−3.3 mm from Dura) 1 week prior to microdialysis sampling. Dialysis collection was performed using a CMA/11 probe (4 mm), perfused with artificial cerebrospinal fluid (aCSF) at […] and collected at 20 min intervals.
GABAergic neurons were stimulated by NMDA (500 μM) in aCSF, 1 hr after Gln administration by gavage.

In the case of `NC(=O)CC[C@H](N)C(=O)O` [Gln, glutamine], in series [1], the “striatal Gln levels” value is “significantly increased” and the “striatal Glu levels” value is “slightly decreased”. Moreover, in series [2], the “plasma Gln levels” value is listed as “increased” and the “plasma Glu levels” value was “not”. Further, in series [3] (Gln by gavage, freely moving rats, saline 111±7%, p<0.05 (FIG. 6)), the “Maximal spontaneous GABA release” value is given as 141±12%. Also, the “NMDA-evoked GABA release” value in series [3] (NMDA 500 μM in aCSF 1 hr after Gln by gavage, saline 177±40% (FIG. 7)) was determined as 252±37%.
